Measurements as given in paper PMC10211317, “Identification of ARUK2002821 as an isoform-selective PI5P4Kα inhibitor” (RSC Medicinal Chemistry, 2023).

Legend:
PI5P4Kβ = target: T1, PI5P4Kβ (Homo sapiens, UniProt P78356); experiment: ADP-Glo kinase assay PI5P4Kβ; type: biochemical; details: single concentration of 100 μM
T1 sequence (P78356 1-416): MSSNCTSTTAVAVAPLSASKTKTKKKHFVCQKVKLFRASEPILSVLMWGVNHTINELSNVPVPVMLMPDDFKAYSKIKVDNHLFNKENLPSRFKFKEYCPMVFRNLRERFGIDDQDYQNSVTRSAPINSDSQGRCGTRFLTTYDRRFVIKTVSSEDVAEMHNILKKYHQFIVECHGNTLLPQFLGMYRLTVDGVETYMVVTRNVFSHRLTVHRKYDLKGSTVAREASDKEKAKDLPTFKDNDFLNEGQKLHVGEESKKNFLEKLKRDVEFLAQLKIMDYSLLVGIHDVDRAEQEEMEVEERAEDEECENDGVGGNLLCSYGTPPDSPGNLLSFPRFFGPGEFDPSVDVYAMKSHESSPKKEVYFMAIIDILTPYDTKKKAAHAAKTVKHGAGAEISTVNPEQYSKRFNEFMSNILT
Method: Assays to determine kinase activity of PI5P4Ks in the presence of inhibitors using an ADP-Glo assay (Promega) were performed as described previously.[28] […] Cultures were induced with 0.4 mM IPTG overnight and probe-sonicated in the presence of protease inhibitors. […] The cleaved protein was further purified by size-exclusion chromatography (ÄKTA Pure, Cytiva). […] The protein purity was confirmed by sodium dodecyl sulfate–polyacrylamide gel electrophoresis, and the concentration was determined by colorimetric assay (Bio-Rad).
Statistical analysis was performed using nonparametric testing in Prism 8 (GraphPad). Activity pIC50 values and in vivo binding pEC50 values were estimated using a 4-parameter fit (Dotmatics).

PIK3C2G = target: T2, PIK3C2G (Homo sapiens, UniProt O75747); experiment: KINOMEscan lipid kinase panel (DiscoverX); type: binding; set-up: dose or concentration left out as unconfirmed
T2 construct: purchased DiscoverX (Eurofins Discovery)
Method: (§1) generated using KINOMEscan™ technologya at DiscoverX. […]
(§2) a Data were generated at Eurofins Discovery using DiscoverX KINOMEscanTM technology. Streptavidin-coated magnetic beads were treated with biotinylated small molecule ligands for 30 minutes at room temperature to generate affinity resins for kinase assays. The liganded beads were blocked with excess biotin and washed with blocking buffer (SeaBlock (Pierce), 1% BSA, 0.05% Tween 20, 1 mM DTT) to remove unbound ligand and to reduce non-specific binding. Binding reactions were assembled by combining kinases, liganded affinity beads, and test compounds in 1x binding buffer (20% SeaBlock, 0.17x PBS, 0.05% Tween 20, 6 mM DTT). Test […]
(§3) The compounds were then diluted directly into the assays such that the final concentration of DMSO was 0.9%. All reactions performed in polypropylene 384-well plate. Each was a final volume of 0.02 ml. The assay plates were incubated at room temperature with shaking for […]
(§4) room temperature with shaking for 30 minutes. The kinase concentration in the eluates was measured by qPCR. […]

PIK3CA = target: T3, PIK3CA (Homo sapiens, UniProt P42336); experiment: KINOMEscan lipid kinase panel (DiscoverX); type: binding; set-up: dose or concentration left out as unconfirmed
T3 construct: purchased DiscoverX (Eurofins Discovery)
Method: as §1, §2, §3, §4

PIK3CA(C420R) = target: T4, PIK3CA(C420R) (Homo sapiens, UniProt P42336, C420R); experiment: KINOMEscan lipid kinase panel (DiscoverX); type: binding; set-up: dose or concentration left out as unconfirmed
T4 construct: purchased DiscoverX (Eurofins Discovery)
T4 sequence (P42336 whole entry C420R): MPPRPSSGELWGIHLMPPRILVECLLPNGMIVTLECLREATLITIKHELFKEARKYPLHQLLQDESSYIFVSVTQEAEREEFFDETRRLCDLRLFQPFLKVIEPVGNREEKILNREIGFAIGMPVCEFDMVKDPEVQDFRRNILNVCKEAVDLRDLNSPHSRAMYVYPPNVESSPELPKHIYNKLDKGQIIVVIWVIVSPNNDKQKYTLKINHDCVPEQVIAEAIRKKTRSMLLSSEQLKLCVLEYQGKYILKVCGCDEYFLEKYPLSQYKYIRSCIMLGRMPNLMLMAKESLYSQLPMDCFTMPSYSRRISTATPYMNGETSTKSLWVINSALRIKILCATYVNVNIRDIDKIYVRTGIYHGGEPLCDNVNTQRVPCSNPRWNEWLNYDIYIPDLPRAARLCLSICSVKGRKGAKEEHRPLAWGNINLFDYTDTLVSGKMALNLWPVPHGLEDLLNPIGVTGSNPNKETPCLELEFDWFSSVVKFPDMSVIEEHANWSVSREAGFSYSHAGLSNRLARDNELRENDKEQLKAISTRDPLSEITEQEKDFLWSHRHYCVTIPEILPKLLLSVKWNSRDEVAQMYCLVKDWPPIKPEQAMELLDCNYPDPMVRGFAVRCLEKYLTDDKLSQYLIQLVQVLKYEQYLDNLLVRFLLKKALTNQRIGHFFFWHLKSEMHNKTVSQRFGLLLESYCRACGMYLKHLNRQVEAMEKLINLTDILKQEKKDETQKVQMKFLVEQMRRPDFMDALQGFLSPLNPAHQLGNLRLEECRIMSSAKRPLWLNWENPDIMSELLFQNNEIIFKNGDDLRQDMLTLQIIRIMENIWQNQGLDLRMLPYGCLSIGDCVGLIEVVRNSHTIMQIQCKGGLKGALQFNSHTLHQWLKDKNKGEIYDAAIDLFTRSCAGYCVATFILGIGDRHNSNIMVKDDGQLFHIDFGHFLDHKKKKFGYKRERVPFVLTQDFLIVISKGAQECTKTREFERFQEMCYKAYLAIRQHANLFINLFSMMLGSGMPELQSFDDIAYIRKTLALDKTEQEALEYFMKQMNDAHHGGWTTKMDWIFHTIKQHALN
Method: as §1, §2, §3, §4

PIK3CA(E542K) = target: T5, PIK3CA(E542K) (Homo sapiens, UniProt P42336, E542K); experiment: KINOMEscan lipid kinase panel (DiscoverX); type: binding; set-up: dose or concentration left out as unconfirmed
T5 construct: purchased DiscoverX (Eurofins Discovery)
T5 sequence (P42336 whole entry E542K): as the sequence (P42336 whole entry C420R) above, with R420C, E542K counted along it
Method: as §1, §2, §3, §4

PIK3CA(E545A) = target: T6, PIK3CA(E545A) (Homo sapiens, UniProt P42336, E545A); experiment: KINOMEscan lipid kinase panel (DiscoverX); type: binding; set-up: dose or concentration left out as unconfirmed
T6 construct: purchased DiscoverX (Eurofins Discovery)
Method: as §1, §2, §3, §4

PIK3CA(E545K) = target: T7, PIK3CA(E545K) (Homo sapiens, UniProt P42336, E545K); experiment: KINOMEscan lipid kinase panel (DiscoverX); type: binding; set-up: dose or concentration left out as unconfirmed
T7 construct: purchased DiscoverX (Eurofins Discovery)
T7 sequence (P42336 whole entry E545K): as the sequence (P42336 whole entry C420R) above, with R420C, E545K counted along it
Method: as §1, §2, §3, §4

PIK3CA(H1047L) = target: T8, PIK3CA(H1047L) (Homo sapiens, UniProt P42336, H1047L); experiment: KINOMEscan lipid kinase panel (DiscoverX); type: binding; set-up: dose or concentration left out as unconfirmed
T8 construct: purchased DiscoverX (Eurofins Discovery)
T8 sequence (P42336 whole entry H1047L): as the sequence (P42336 whole entry C420R) above, with R420C, H1047L counted along it
Method: as §1, §2, §3, §4

PIK3CA(H1047Y) = target: T9, PIK3CA(H1047Y) (Homo sapiens, UniProt P42336, H1047Y); experiment: KINOMEscan lipid kinase panel (DiscoverX); type: binding; set-up: dose or concentration left out as unconfirmed
T9 construct: purchased DiscoverX (Eurofins Discovery)
T9 sequence (P42336 whole entry H1047Y): as the sequence (P42336 whole entry C420R) above, with R420C, H1047Y counted along it
Method: as §1, §2, §3, §4

PIK3CA(I800L) = target: T10, PIK3CA(I800L) (Homo sapiens, UniProt P42336, I800L); experiment: KINOMEscan lipid kinase panel (DiscoverX); type: binding; set-up: dose or concentration left out as unconfirmed
T10 construct: purchased DiscoverX (Eurofins Discovery)
T10 sequence (P42336 whole entry I800L): as the sequence (P42336 whole entry C420R) above, with R420C, I800L counted along it
Method: as §1, §2, §3, §4

PIK3CA(M1043I) = target: T11, PIK3CA(M1043I) (Homo sapiens, UniProt P42336, M1043I); experiment: KINOMEscan lipid kinase panel (DiscoverX); type: binding; set-up: dose or concentration left out as unconfirmed
T11 construct: purchased DiscoverX (Eurofins Discovery)
Method: as §1, §2, §3, §4

PIK3CA(Q546K) = target: T12, PIK3CA(Q546K) (Homo sapiens, UniProt P42336, Q546K); experiment: KINOMEscan lipid kinase panel (DiscoverX); type: binding; set-up: dose or concentration left out as unconfirmed
T12 construct: purchased DiscoverX (Eurofins Discovery)
Method: as §1, §2, §3, §4

PIK3CB = target: T13, PIK3CB (Homo sapiens, UniProt P42338); experiment: KINOMEscan lipid kinase panel (DiscoverX); type: binding; set-up: dose or concentration left out as unconfirmed
T13 construct: purchased DiscoverX (Eurofins Discovery)
T13 sequence (P42338 whole entry): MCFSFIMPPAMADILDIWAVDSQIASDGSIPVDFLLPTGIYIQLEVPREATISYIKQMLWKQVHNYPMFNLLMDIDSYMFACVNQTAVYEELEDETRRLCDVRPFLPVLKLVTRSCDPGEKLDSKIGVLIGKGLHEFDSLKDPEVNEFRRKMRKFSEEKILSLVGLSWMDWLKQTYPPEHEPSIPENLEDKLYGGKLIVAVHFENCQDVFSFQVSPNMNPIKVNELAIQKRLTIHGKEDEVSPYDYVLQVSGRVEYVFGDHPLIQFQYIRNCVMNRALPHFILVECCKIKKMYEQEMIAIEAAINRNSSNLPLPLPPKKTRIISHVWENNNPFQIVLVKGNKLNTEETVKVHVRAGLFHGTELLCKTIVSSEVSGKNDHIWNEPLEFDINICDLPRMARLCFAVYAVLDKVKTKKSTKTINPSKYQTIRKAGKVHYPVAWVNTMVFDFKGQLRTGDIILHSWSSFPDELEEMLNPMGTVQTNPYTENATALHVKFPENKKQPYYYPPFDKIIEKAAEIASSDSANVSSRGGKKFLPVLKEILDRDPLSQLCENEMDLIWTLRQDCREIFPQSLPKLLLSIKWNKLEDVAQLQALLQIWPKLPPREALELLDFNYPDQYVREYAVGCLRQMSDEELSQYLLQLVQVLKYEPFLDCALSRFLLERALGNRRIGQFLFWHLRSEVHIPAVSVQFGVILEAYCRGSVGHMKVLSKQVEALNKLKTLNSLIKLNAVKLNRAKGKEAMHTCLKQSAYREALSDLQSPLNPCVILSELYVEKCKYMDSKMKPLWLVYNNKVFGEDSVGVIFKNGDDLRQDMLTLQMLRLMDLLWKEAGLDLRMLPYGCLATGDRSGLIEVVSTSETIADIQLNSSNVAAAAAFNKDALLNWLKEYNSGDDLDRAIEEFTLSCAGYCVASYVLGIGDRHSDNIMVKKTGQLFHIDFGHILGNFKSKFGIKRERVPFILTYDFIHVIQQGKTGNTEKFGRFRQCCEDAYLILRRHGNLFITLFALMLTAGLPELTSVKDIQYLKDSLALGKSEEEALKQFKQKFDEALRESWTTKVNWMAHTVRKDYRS
Method: as §1, §2, §3, §4

PIK3CD = target: T14, PIK3CD (Homo sapiens, UniProt O00329); experiment: KINOMEscan lipid kinase panel (DiscoverX); type: binding; set-up: dose or concentration left out as unconfirmed
T14 construct: purchased DiscoverX (Eurofins Discovery)
T14 sequence (O00329 whole entry): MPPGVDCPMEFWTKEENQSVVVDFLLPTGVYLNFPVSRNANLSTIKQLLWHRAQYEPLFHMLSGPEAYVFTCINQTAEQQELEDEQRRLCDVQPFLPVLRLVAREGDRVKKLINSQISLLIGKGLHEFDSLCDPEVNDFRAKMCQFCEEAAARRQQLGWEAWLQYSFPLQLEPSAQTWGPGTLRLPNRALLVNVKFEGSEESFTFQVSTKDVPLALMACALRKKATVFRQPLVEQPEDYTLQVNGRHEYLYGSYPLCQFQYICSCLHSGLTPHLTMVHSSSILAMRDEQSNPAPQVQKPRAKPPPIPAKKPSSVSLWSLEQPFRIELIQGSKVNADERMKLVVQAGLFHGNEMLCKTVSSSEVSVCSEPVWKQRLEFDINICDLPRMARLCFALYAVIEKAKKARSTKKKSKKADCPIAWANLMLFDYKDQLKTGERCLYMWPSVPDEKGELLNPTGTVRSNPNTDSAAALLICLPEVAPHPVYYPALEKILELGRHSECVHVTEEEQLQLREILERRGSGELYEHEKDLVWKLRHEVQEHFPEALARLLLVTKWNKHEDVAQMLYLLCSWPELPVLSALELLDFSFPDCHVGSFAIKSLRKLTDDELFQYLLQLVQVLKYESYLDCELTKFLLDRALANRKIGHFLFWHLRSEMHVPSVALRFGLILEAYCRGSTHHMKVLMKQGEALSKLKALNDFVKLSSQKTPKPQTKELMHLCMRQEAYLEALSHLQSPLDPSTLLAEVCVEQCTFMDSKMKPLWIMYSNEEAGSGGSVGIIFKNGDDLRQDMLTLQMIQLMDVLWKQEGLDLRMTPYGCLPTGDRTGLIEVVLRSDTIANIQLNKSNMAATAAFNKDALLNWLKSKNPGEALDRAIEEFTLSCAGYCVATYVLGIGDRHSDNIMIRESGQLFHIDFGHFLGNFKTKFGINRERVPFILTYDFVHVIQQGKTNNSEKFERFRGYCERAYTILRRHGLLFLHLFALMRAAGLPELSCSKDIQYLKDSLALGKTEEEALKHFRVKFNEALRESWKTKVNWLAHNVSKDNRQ
Method: as §1, §2, §3, §4

PIK3CG = target: T15, PIK3CG (Homo sapiens, UniProt P48736); experiment: KINOMEscan lipid kinase panel (DiscoverX); type: binding; set-up: dose or concentration left out as unconfirmed
T15 construct: purchased DiscoverX (Eurofins Discovery)
Method: as §1, §2, §3, §4

PIK4CB = PIK4CB (Homo sapiens, UniProt Q9UBF8); experiment: KINOMEscan lipid kinase panel (DiscoverX); type: binding; set-up: dose or concentration left out as unconfirmed
Method: as §1, §2, §3, §4

PIKFYVE = target: T16, PIKFYVE (Homo sapiens, UniProt Q9Y2I7); experiment: KINOMEscan lipid kinase panel (DiscoverX); type: binding; set-up: dose or concentration left out as unconfirmed
T16 construct: purchased DiscoverX (Eurofins Discovery)
Method: as §1, §2, §3, §4

PIP5K1A = target: T17, PIP5K1A (Homo sapiens, UniProt Q99755); experiment: KINOMEscan lipid kinase panel (DiscoverX); type: binding; set-up: dose or concentration left out as unconfirmed
T17 construct: purchased DiscoverX (Eurofins Discovery)
T17 sequence (Q99755 whole entry): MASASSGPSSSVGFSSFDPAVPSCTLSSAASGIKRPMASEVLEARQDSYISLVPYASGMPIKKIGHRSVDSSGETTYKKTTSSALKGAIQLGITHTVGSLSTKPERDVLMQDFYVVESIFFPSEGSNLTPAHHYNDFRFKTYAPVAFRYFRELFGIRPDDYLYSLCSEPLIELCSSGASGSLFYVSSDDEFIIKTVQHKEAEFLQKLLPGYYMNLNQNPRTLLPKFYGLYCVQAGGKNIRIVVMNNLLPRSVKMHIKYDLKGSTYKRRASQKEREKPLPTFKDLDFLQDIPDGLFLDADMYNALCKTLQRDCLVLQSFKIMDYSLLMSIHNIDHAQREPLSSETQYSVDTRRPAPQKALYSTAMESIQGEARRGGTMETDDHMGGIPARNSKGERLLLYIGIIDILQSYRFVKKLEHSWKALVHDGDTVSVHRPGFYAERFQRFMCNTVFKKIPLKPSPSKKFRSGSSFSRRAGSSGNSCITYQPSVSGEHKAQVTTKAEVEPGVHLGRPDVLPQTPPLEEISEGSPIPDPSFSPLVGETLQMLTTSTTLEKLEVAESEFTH
Method: as §1, §2, §3, §4

PIP5K1C = target: T18, PIP5K1C (Homo sapiens, UniProt O60331); experiment: KINOMEscan lipid kinase panel (DiscoverX); type: binding; set-up: dose or concentration left out as unconfirmed
T18 construct: purchased Eurofins Discovery (DiscoverX KINOMEscan)
T18 sequence (O60331 whole entry): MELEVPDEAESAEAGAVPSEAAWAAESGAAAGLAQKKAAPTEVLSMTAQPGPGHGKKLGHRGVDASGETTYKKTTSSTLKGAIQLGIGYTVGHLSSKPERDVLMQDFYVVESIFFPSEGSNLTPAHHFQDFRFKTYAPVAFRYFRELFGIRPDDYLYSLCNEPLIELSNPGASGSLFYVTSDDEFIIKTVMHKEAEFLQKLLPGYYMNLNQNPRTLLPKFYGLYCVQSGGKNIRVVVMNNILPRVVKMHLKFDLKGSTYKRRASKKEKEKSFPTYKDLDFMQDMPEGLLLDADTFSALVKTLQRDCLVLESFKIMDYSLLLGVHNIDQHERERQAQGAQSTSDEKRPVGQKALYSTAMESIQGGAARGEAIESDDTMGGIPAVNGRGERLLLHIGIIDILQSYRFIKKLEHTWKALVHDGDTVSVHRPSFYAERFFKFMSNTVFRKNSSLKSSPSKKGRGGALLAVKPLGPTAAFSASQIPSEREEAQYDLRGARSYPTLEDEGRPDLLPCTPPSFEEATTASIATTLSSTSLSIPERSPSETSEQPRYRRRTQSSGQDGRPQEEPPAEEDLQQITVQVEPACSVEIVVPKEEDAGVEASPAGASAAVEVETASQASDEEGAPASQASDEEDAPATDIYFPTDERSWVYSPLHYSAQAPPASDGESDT
Method: as §1, §2, §3, §4

PIP5K2C (PI5P4KC) = target: T19, PIP5K2C (PI5P4KC) (Homo sapiens, UniProt Q8TBX8); experiment: KINOMEscan lipid kinase panel (DiscoverX); type: binding; set-up: dose or concentration left out as unconfirmed
T19 construct: purchased Eurofins Discovery (DiscoverX KINOMEscan)
T19 sequence (Q8TBX8 whole entry): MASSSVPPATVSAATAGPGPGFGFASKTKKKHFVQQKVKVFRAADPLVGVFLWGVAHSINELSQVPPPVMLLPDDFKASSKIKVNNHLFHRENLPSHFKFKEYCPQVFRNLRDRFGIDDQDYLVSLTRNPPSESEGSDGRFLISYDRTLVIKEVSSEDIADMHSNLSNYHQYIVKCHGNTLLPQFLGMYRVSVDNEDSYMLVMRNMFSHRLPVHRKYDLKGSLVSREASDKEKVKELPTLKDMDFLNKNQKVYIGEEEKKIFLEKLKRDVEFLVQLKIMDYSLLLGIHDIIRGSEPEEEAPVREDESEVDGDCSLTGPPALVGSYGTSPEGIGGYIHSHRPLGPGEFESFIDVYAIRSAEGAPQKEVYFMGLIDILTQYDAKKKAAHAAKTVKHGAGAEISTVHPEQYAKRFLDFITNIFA
Method: as §1, §2, §3, §4

VPS34 = target: T20, VPS34 (Homo sapiens, UniProt Q8NEB9); experiment: KINOMEscan lipid kinase panel (DiscoverX); type: binding; set-up: dose or concentration left out as unconfirmed
T20 construct: purchased Eurofins Discovery (DiscoverX KINOMEscan)
Method: as §1, §2, §3, §4

COc1ccc(Nc2ncnc3c2ccn3-c2ccc(C)c(C)c2)cc1Cl [compound 36]
inhibition at 100 µM (PI5P4Kβ): 4%

CC1(C)CN(c2ncc(C(=O)Nc3cccc(C(F)(F)F)c3)c(N)n2)C(=O)N1 [compound 7, Imanixil]
% activity remaining (PIK3C2G): 100% | % activity remaining (PIK3CA): 100% | % activity remaining (PIK3CA(C420R)): 100% | % activity remaining (PIK3CA(E542K)): 100% | % activity remaining (PIK3CA(E545A)): 100% | % activity remaining (PIK3CA(E545K)): 100% | % activity remaining (PIK3CA(H1047L)): 100% | % activity remaining (PIK3CA(H1047Y)): 95% | % activity remaining (PIK3CA(I800L)): 100% | % activity remaining (PIK3CA(M1043I)): 100% | % activity remaining (PIK3CA(Q546K)): 100% | % activity remaining (PIK3CB): 100% | % activity remaining (PIK3CD): 100% | % activity remaining (PIK3CG): 100% | % activity remaining (PIK4CB): 98% | % activity remaining (PIKFYVE): 100% | % activity remaining (PIP5K1A): 99% | % activity remaining (PIP5K1C): 100% | % activity remaining (PIP5K2C (PI5P4KC)): 100% | % activity remaining (VPS34): 100%
